Measured values taken from US20250325552A1, “SUBSTITUTED THIADIAZOLYL DERIVATIVES AS DNA POLYMERASE THETA INHIBITORS” (IDEAYA Biosciences, Inc., priority 2020, published 2025).

The compounds below were run against Polθ theta (1-899) (hPolQ) (Homo sapiens (Human), UniProt O75417) (assay: Biological Assay 1: Polθ ATPase activity, NADH oxidation-coupled enzymatic assay (10 nM enzyme, 30 min)). Conditions: Polθ (1-899) 10 nM, 100 μM ATP, 300 nM dT50 ssDNA; Examples 1 to 268; read-out: ATPase NADH coupling:Standard Screening:hPolQ IC50.
Sequence of Polθ theta (1-899) (hPolQ) (O75417 1-899): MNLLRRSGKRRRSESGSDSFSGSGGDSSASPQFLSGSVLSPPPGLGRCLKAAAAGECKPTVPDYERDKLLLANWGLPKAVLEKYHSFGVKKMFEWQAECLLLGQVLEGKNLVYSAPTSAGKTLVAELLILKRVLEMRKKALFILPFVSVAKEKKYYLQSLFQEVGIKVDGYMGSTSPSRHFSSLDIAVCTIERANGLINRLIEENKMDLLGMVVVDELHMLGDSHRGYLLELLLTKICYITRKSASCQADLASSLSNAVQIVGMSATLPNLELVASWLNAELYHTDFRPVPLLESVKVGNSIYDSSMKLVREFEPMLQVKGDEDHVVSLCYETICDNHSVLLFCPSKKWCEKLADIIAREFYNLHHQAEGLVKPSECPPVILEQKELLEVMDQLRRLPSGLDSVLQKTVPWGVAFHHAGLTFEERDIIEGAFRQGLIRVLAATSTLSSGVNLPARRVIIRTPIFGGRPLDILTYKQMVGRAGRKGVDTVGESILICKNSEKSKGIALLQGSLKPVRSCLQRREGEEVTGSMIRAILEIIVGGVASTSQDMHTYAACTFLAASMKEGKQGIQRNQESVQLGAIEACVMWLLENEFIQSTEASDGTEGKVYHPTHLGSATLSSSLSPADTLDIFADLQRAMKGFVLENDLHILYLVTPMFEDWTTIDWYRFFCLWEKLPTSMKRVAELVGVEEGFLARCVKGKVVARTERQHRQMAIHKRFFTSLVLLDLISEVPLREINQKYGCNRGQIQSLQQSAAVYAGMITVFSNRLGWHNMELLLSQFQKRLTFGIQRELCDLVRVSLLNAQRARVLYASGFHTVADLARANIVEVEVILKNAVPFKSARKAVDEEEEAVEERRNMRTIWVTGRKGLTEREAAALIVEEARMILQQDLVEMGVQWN
Format: biochemical
Procedure, shortened: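 Polθ (1-899) at 10 nM was preincubated with compound for 15 min at room temperature in 20 mM Tris pH 7.80, 80 mM KCl, 10 mM MgCl2. An equal volume of 100 μM ATP, 300 nM dT50 ssDNA and a PK/LDH–NADH coupling system was then added. A340 was read each minute for 30 min. IC50 came from rate slopes over 10-point series with a four-parameter fit.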
`COc1cccc(F)c1-c1cccnc1C(=O)Nc1nnc(OCc2ccc(Cl)cn2)s1` [Example 19, N-(5-((5-chloropyridin-2-yl)methoxy)-1,3,4-thiadiazol-2-yl)-3-(2-fluoro-6-methoxyphenyl)picolinamide] was tested, and the IC50 was 1000 to 10000 nM.
For `COc1ccc(COc2nnc(NC(=O)c3cnc(C)cc3-c3c(F)cccc3OC)s2)nc1` [Example 20, 4-(2-fluoro-6-methoxyphenyl)-N-(5-((5-methoxypyridin-2-yl)methoxy)-1,3,4-thiadiazol-2-yl)-6-methylpyridine-3-carboxamide], the IC50 was ≤ 200 nM.
With `COc1c(C#N)cccc1-c1cc(C)ncc1C(=O)Nc1nnc(OCc2ccc(Cl)cn2)s1` [Example 21, N-(5-((5-chloropyridin-2-yl)methoxy)-1,3,4-thiadiazol-2-yl)-4-(3-cyano-2-methoxyphenyl)-6-methylnicotinamide] the IC50 was ≤ 200 nM.
`Cc1cc(-c2cc(CO)ccc2F)c(C(=O)Nc2nnc(OCc3ccc(Cl)cn3)s2)cn1` [Example 23, N-(5-((5-chloropyridin-2-yl)methoxy)-1,3,4-thiadiazol-2-yl)-4-(2-fluoro-5-(hydroxymethyl)phenyl)-6-methylnicotinamide] was tested, and the IC50 was ≤ 200 nM.
In the case of `COc1cccc(F)c1-c1cc(C)ncc1C(=O)Nc1nnc(OCc2ccc(S(C)(=O)=O)cn2)s1` [Example 24, 4-(2-fluoro-6-methoxyphenyl)-6-methyl-N-(5-((5-(methylsulfonyl)pyridin-2-yl)methoxy)-1,3,4-thiadiazol-2-yl)nicotinamide], the IC50 is reported as ≤ 200 nM.
For `Cc1cc(-c2c(F)cccc2OC(F)F)c(C(=O)Nc2nnc(OCc3ccc(CO)cn3)s2)cn1` [Example 25, 4-(2-(difluoromethoxy)-6-fluorophenyl)-N-(5-((5-(hydroxymethyl)pyridin-2-yl)methoxy)-1,3,4-thiadiazol-2-yl)-6-methylnicotinamide], the IC50 was ≤ 200 nM.
In the case of `COCc1cccc(COc2nnc(NC(=O)c3cnc(C)cc3-c3ccccc3OC)s2)n1` [Example 26, N-(5-((6-(methoxymethyl)pyridin-2-yl)methoxy)-1,3,4-thiadiazol-2-yl)-4-(2-methoxyphenyl)-6-methylnicotinamide], the IC50 is reported as 200 to 500 nM.
In the case of `COc1ccccc1-c1cc(C)ncc1C(=O)Nc1nnc(OC[C@H](O)c2ccc(Cl)cn2)s1` [Example 27, (R)—N-(5-(2-(5-chloropyridin-2-yl)-2-hydroxyethoxy)-1,3,4-thiadiazol-2-yl)-4-(2-methoxyphenyl)-6-methylnicotinamide], the IC50 is reported as 200 to 500 nM.
In the case of `COc1ccccc1-c1cc(C)ncc1C(=O)Nc1nnc(OC[C@@H](O)c2ccc(Cl)cn2)s1` [Example 28, (S)—N-(5-(2-(5-chloropyridin-2-yl)-2-hydroxyethoxy)-1,3,4-thiadiazol-2-yl)-4-(2-methoxyphenyl)-6-methylnicotinamide], the IC50 is reported as 500 to 1000 nM.
`COc1ccccc1-c1cc(C)ncc1C(=O)Nc1nnc(O[C@@H](CO)c2ccc(Cl)cn2)s1` [Example 29, (R)—N-(5-(1-(5-chloropyridin-2-yl)-2-hydroxyethoxy)-1,3,4-thiadiazol-2-yl)-4-(2-methoxyphenyl)-6-methylnicotinamide] was tested, and the IC50 was 1000 to 10000 nM.
`COc1ccccc1-c1cc(C)ncc1C(=O)Nc1nnc(O[C@H](CO)c2ccc(Cl)cn2)s1` [Example 30, (S)—N-(5-(1-(5-chloropyridin-2-yl)-2-hydroxyethoxy)-1,3,4-thiadiazol-2-yl)-4-(2-methoxyphenyl)-6-methylnicotinamide] was tested, and the IC50 was 500 to 1000 nM.
With `COc1cc(CO)ccc1-c1cc(C)ncc1C(=O)Nc1nnc(OCc2ccc(Cl)cn2)s1` [Example 31, N-(5-((5-chloropyridin-2-yl)methoxy)-1,3,4-thiadiazol-2-yl)-4-(4-(hydroxymethyl)-2-methoxyphenyl)-6-methylnicotinamide] the IC50 was 200 to 500 nM.
In the case of `COc1ccc(C#N)cc1-c1cc(C)ncc1C(=O)Nc1nnc(OCc2ccc(CO)cn2)s1` [Example 32, 4-(5-cyano-2-methoxyphenyl)-N-(5-((5-(hydroxymethyl)pyridin-2-yl)methoxy)-1,3,4-thiadiazol-2-yl)-6-methylpyridine-3-carboxamide], the IC50 is reported as ≤ 200 nM.
`COc1cccc(F)c1-c1cc(C)ncc1C(=O)Nc1nnc(OCc2ccc(C(C)(C)O)cn2)s1` [Example 33, 4-(2-fluoro-6-methoxyphenyl)-N-(5-((5-(2-hydroxypropan-2-yl)pyridin-2-yl)methoxy)-1,3,4-thiadiazol-2-yl)-6-methylnicotinamide] was tested, and the IC50 was ≤ 200 nM.
For `COCc1ccc(COc2nnc(NC(=O)c3cnc(C)cc3-c3c(F)cccc3OC)s2)nc1` [Example 34, 4-(2-fluoro-6-methoxyphenyl)-N-(5-((5-(methoxymethyl)pyridin-2-yl)methoxy)-1,3,4-thiadiazol-2-yl)-6-methylnicotinamide], the IC50 was ≤ 200 nM.
With `COc1cccc(F)c1-c1cc(C)ncc1C(=O)Nc1nnc(OCc2ccc3c(n2)OCCO3)s1` [Example 35, N-(5-(2H,3H-(1,4)dioxino(2,3-b)pyridin-6-ylmethoxy)-1,3,4-thiadiazol-2-yl)-4-(2-fluoro-6-methoxyphenyl)-6-methylpyridine-3-carboxamide] the IC50 was ≤ 200 nM.
`COc1cnc(C)cc1-c1cc(C)ncc1C(=O)Nc1nnc(OCc2ccc(Cl)cn2)s1` [Example 36, N-(5-((5-chloropyridin-2-yl)methoxy)-1,3,4-thiadiazol-2-yl)-5′-methoxy-2′,6-dimethyl-(4,4′-bipyridine)-3-carboxamide] was tested, and the IC50 was ≤ 200 nM.
With `COc1cccc(F)c1-c1cncnc1C(=O)Nc1nnc(OCc2ccc(CO)cn2)s1` [Example 37, 5-(2-fluoro-6-methoxyphenyl)-N-(5-((5-(hydroxymethyl)pyridin-2-yl)methoxy)-1,3,4-thiadiazol-2-yl)pyrimidine-4-carboxamide] the IC50 was ≤ 200 nM.
In the case of `COc1cccc(F)c1-c1cc(C)ncc1C(=O)Nc1nnc(OCc2ccc(OC3COC3)cn2)s1` [Example 38, 4-(2-fluoro-6-methoxyphenyl)-6-methyl-N-(5-((5-(oxetan-3-yloxy)pyridin-2-yl)methoxy)-1,3,4-thiadiazol-2-yl)pyridine-3-carboxamide], the IC50 is reported as ≤ 200 nM.
In the case of `COc1ccc(Cl)cc1-c1cc(C)ncc1C(=O)Nc1nnc(OCc2ccc(CO)cn2)s1` [Example 39, 4-(5-chloro-2-methoxyphenyl)-N-(5-((5-(hydroxymethyl)pyridin-2-yl)methoxy)-1,3,4-thiadiazol-2-yl)-6-methylpyridine-3-carboxamide], the IC50 is reported as ≤ 200 nM.
In the case of `COc1cccc(F)c1-c1cc(C)ncc1C(=O)Nc1nnc(OCc2ccc([C@H](C)O)cn2)s1` [Example 40, 4-(2-fluoro-6-methoxyphenyl)-N-(5-((5-((S)-1-hydroxyethyl)pyridin-2-yl)methoxy)-1,3,4-thiadiazol-2-yl)-6-methylnicotinamide], the IC50 is reported as ≤ 200 nM.
`COc1cccc(F)c1-c1cc(C)ncc1C(=O)Nc1nnc(OCc2ccc([C@@H](C)O)cn2)s1` [Example 41, 4-(2-fluoro-6-methoxyphenyl)-N-(5-((5-((R)-1-hydroxyethyl)pyridin-2-yl)methoxy)-1,3,4-thiadiazol-2-yl)-6-methylnicotinamide] was tested, and the IC50 was ≤ 200 nM.
`COc1ccccc1-c1cc(C)ncc1C(=O)Nc1nnc(OCc2cc(CO)ccn2)s1` [Example 42, N-(5-((4-(hydroxymethyl)pyridin-2-yl)methoxy)-1,3,4-thiadiazol-2-yl)-4-(2-methoxyphenyl)-6-methylpyridine-3-carboxamide] was tested, and the IC50 was 200 to 500 nM.
`COc1ccc(COc2nnc(NC(=O)c3cnc(C)cc3-c3c(F)cccc3OC)s2)nc1OC` [Example 43, N-(5-((5,6-dimethoxypyridin-2-yl)methoxy)-1,3,4-thiadiazol-2-yl)-4-(2-fluoro-6-methoxyphenyl)-6-methylnicotinamide] was tested, and the IC50 was ≤ 200 nM.
For `COc1ccc(C)cc1-c1cc(C)ncc1C(=O)Nc1nnc(OCc2ccc(Cl)cn2)s1` [Example 44, N-(5-((5-chloropyridin-2-yl)methoxy)-1,3,4-thiadiazol-2-yl)-4-(2-methoxy-5-methylphenyl)-6-methylpyridine-3-carboxamide], the IC50 was ≤ 200 nM.
With `COc1ccc(COc2nnc(NC(=O)c3cnc(C)cc3-c3cc(Cl)ncc3OC)s2)nc1` [Example 45, 2′-chloro-5′-methoxy-N-(5-((5-methoxypyridin-2-yl)methoxy)-1,3,4-thiadiazol-2-yl)-6-methyl-(4,4′-bipyridine)-3-carboxamide] the IC50 was ≤ 200 nM.
`COc1ccc(COc2nnc(NC(=O)c3cnc(C)cc3-c3c(F)cccc3OC(F)F)s2)nc1` [Example 46, 4-(2-(difluoromethoxy)-6-fluorophenyl)-N-(5-((5-methoxypyridin-2-yl)methoxy)-1,3,4-thiadiazol-2-yl)-6-methylnicotinamide] was tested, and the IC50 was ≤ 200 nM.
In the case of `Cc1cc(-c2c(F)cccc2OC(F)F)c(C(=O)Nc2nnc(OCc3ccc4c(n3)OCCO4)s2)cn1` [Example 47, 4-(2-(difluoromethoxy)-6-fluorophenyl)-N-(5-((2,3-dihydro-(1,4)dioxino(2,3-b)pyridin-6-yl)methoxy)-1,3,4-thiadiazol-2-yl)-6-methylnicotinamide], the IC50 is reported as ≤ 200 nM.
With `COc1cccc(F)c1-c1cc(C)ncc1C(=O)Nc1nnc(OCc2ccc(C3(O)CC3)cn2)s1` [Example 48, 4-(2-fluoro-6-methoxyphenyl)-N-(5-((5-(1-hydroxycyclopropyl)pyridin-2-yl)methoxy)-1,3,4-thiadiazol-2-yl)-6-methylnicotinamide] the IC50 was ≤ 200 nM.
`COc1cccc(F)c1-c1cc(C)ncc1C(=O)Nc1nnc(OCc2ccc(OC(F)F)cn2)s1` [Example 49, N-(5-((5-(difluoromethoxy)pyridin-2-yl)methoxy)-1,3,4-thiadiazol-2-yl)-4-(2-fluoro-6-methoxyphenyl)-6-methylnicotinamide] was tested, and the IC50 was ≤ 200 nM.
In the case of `Cc1cc(-c2c(F)cccc2OC(F)F)c(C(=O)Nc2nnc(OCc3ccc(C(C)(C)O)cn3)s2)cn1` [Example 50, 4-(2-(difluoromethoxy)-6-fluorophenyl)-N-(5-((5-(2-hydroxypropan-2-yl)pyridin-2-yl)methoxy)-1,3,4-thiadiazol-2-yl)-6-methylnicotinamide], the IC50 is reported as ≤ 200 nM.
